From ChEMBL document CHEMBL1157539, “Thousands of chemical starting points for antimalarial lead identification” (Nature, 2010)

System: Plasmodium falciparum
Test: GSK_TCMDC: Inhibition of Plasmodium falciparum 3D7 in whole erythrocytes, using parasite LDH activity as an index of growth.
Type: functional, organism-based
Details: Plasmodium falciparum, 3D7

In the case of `Oc1ccccc1CNCC(O)c1cccc(C(F)(F)F)c1` (stereo unspecified), the XC50 is reported as 526 nM.
With `O=C(Nc1cccc(-c2cccc(-c3nc4cc(C(F)(F)F)ccc4[nH]3)c2)c1)c1cccnc1Cl` the XC50 was 657 nM.
`COc1ccc(-c2nc3c4ccccc4c4ccc(I)cc4c3[nH]2)cc1` was tested, and the XC50 was 1100 nM.
With `Cc1ccc2[nH]c3ccccc3c(=O)c2c1` the XC50 was 863 nM.
For `CCCCC1(NC(=O)[C@@H](Nc2ccc(C#N)c3ccccc23)C2CCCCC2)CCCCC1`, the XC50 was 1120 nM.
With `Clc1ccc(-c2nc3cc(-c4ccc5nc(-c6ccc(Cl)cc6)[nH]c5c4)ccc3[nH]2)cc1` the XC50 was 241 nM.
Compound `CC1CCCC(NC(=O)CCOc2ccccc2)C1` (stereo unspecified) has an XC50 of 882 nM.
`O=C(NCCCCN1CCCC2c3cccc(O)c3CCC21)c1ccc(-c2ccccc2)cc1` (stereo unspecified) gave an XC50 of 1170 nM.
`CCOCCCn1c(=N)c(C(=O)NCc2ccc(OC)cc2)cc2c(=O)n3cccc(C)c3nc21` showed an XC50 of 1060 nM.
For `Fc1ccc2[nH]c(-c3ccc(-c4cccc(CN5CCN(c6ccncc6)CC5)c4)cc3)nc2c1`, the XC50 was 85.7 nM.
In the case of `CN(CCCNCc1cccc2ccccc12)CCCNCc1cccc2ccccc12`, the XC50 is reported as 722 nM.
For `CC[C@H](NC(=O)c1c(N)c(-c2sccc2Cl)nc2ccccc12)c1ccccc1`, the XC50 was 912 nM.
For `Cc1cc(O)c(-c2ccc(OCc3ccc(Cl)cc3)cc2)c(C)n1`, the XC50 was 732 nM.
In the case of `Cc1noc(-c2ccc(NC[C@@H](C)NC[C@H](O)c3cccc(Cl)c3)cc2)n1`, the XC50 is reported as 756 nM.
With `CCCCc1cc(NCC)nc(Nc2cccc(OC)c2)n1` the XC50 was 922 nM.
In the case of `CS(=O)(=O)c1ccccc1CNC(=O)c1ccc(-c2ccc(-c3nc4cc(C(F)(F)F)ccc4[nH]3)s2)cc1`, the XC50 is reported as 236 nM.
For `N#Cc1ccc(C=NNc2nc3ccccc3[nH]2)cc1`, the XC50 was 1000 nM.
In the case of `O=[N+]([O-])c1ccc2c(c1)c1ccccc1n2Cc1ccccc1O`, the XC50 is reported as 1110 nM.
For `CC(C)Oc1ccc(N2CCN(CCCCNC(=O)c3ccc(NC(=O)c4ccc(Cl)cc4)cc3)CC2)c(OC(C)C)c1`, the XC50 was 512 nM.
Compound `Cc1cc(O)c(-c2cccc(Oc3ccc(Cl)cc3)c2)c(C)n1` has an XC50 of 736 nM.
`COc1cc(NC(=O)Nc2ccnc3ccccc23)cc(OC)c1` was tested, and the XC50 was 469 nM.
For `CN(C)c1ccc(CN2CCC(CNC(=O)c3cc(-c4ccccc4Cl)cs3)C2)cc1` (stereo unspecified), the XC50 was 1440 nM.
`CCCc1cc(NC2CCN(C)CC2)nc(Nc2ccc(F)cc2)n1` gave an XC50 of 801 nM.
Work on `Cc1c(CNCCCNc2cc(=O)c3ccccc3[nH]2)sc(-c2ccco2)c1Br` yielded an XC50 of 1020 nM.
Work on `O=C(NCCCCN1CCC(c2ccc3c(c2O)CCCC3)CC1)c1ccc(NC(=O)c2ccc(Cl)cc2)cc1` yielded an XC50 of 243 nM.
With `COc1cccc2c(NN=Cc3cccc(Cl)c3)ccnc12` the XC50 was 838 nM.
`CC(C)(C)c1cc(NC2CC2)nc(-c2ccccn2)n1` was tested, and the XC50 was 719 nM.
In the case of `COCCNCc1ccc(-c2ccc(CNc3ccc4ncccc4c3)cc2)cc1`, the XC50 is reported as 1040 nM.
Work on `COc1cc(C(=O)NCCCN2CCN(c3cc(Cl)ccc3OC)CC2)ccc1-c1nc2cc(Cl)c(Cl)cc2[nH]1` yielded an XC50 of 731 nM.
`COc1cccc2c(Oc3ccccc3C)ccnc12` was tested, and the XC50 was 1230 nM.
With `CN(C)CCn1cc(C(=O)c2cc(Cl)ccc2O)cc1-c1nc2ccccc2c(=O)[nH]1` the XC50 was 634 nM.
With `O=C(CCc1ccco1)NC1CCN(CC2(c3ccc(Cl)cc3)CCC2)CC1` the XC50 was 1450 nM.
For `CCN(CC)c1nc(Nc2cc(C)ccc2C)nc(Nc2ccccc2O)n1`, the XC50 was 641 nM.
In the case of `c1ccc(Oc2ccc(Nc3ccnc(Nc4ccc(CN5CCOCC5)cc4)n3)cc2)cc1`, the XC50 is reported as 941 nM.
In the case of `Cc1cccc(-c2nc(Nc3ccncc3)c3ccc([N+](=O)[O-])cc3n2)n1`, the XC50 is reported as 831 nM.
Work on `O=C(C=Cc1ccc(Br)cc1)NC1CCC(CN2CCC(c3c[nH]c4ccccc34)CC2)CC1` (stereo unspecified) yielded an XC50 of 682 nM.
With `Cn1cnc(CCNC(=O)c2ccc(-c3cccc(-c4nc5cc(C(F)(F)F)ccc5[nH]4)c3)cc2)c1` the XC50 was 726 nM.
`Cc1nc(C)c(-c2ccc(Oc3cccc(OC(F)(F)F)c3)cc2)c(O)c1Cl` was tested, and the XC50 was 684 nM.
For `COC(=O)c1cccc(CN(CCC(O)(C(F)(F)F)C(F)(F)F)C(=O)CC2CCCC2)c1`, the XC50 was 909 nM.
Compound `Cc1cc2nc(-c3ccc(C(=O)NCc4ccc(C(C)(C)C)cc4)cc3)[nH]c2cc1C` has an XC50 of 772 nM.
Work on `COc1c(C2CCN(CCCCNC(=O)c3ccc(NC(=O)c4ccc(C#N)cc4)cc3)CC2)ccc2c1CCCC2` yielded an XC50 of 292 nM.
With `O=C(/C=C/c1ccc(F)cc1)NC1CCC(CCN2CCc3ccccc3CC2)CC1` (stereo unspecified) the XC50 was 1400 nM.
`O=C(NC1CC1)c1ccc(N2CCC(Cc3ccccc3)CC2)c([N+](=O)[O-])c1` was tested, and the XC50 was 614 nM.
Compound `C[C@@H]1CN(C(c2cccc(O)c2)c2cccc(C(=O)N(C)c3cccc(F)c3)c2)[C@@H](C)CN1C(c1cccc(O)c1)c1cccc(C(=O)N(C)c2cccc(F)c2)c1` (stereo partly specified) has an XC50 of 918 nM.
`O=C(Cn1c(CCc2cccc(F)c2F)cc(=O)c2cccnc21)N(CCCn1ccnc1)Cc1ccc(-c2ccc(C(F)(F)F)cc2)cc1` gave an XC50 of 797 nM.
Compound `O=C(CSc1nnc(-c2ccccc2Br)[nH]1)c1c[nH]c2ccccc12` has an XC50 of 982 nM.
With `CCNc1cc(C(=O)N[C@@H](Cc2ccccc2)[C@H](O)CNCCc2cc(OC)cc(OC)c2)cc(N2CCCCS2(=O)=O)c1` the XC50 was 1140 nM.
`CC(C)c1ccc(CN2CCC(NC(=O)c3ccc(-c4ccccc4F)s3)CC2)cc1` was tested, and the XC50 was 1550 nM.
`C/C=C1\CN2CC[C@H]1C[C@@H]2[C@@H](O)c1ccnc2ccc(O)cc12` was tested, and the XC50 was 245 nM.
`Nc1ncnc2cc(-c3cccc(S(N)(=O)=O)c3)sc12` gave an XC50 of 151 nM.
Work on `Cc1cc(C2NC(=O)c3ccccc3N2)c(C)n1-c1ccc2c(c1)OCO2` (stereo unspecified) yielded an XC50 of 731 nM.
Compound `COc1ccc(OC)c2c1CC1NCC2c2c(OC)ccc(OC)c21` (stereo unspecified) has an XC50 of 971 nM.
Work on `COc1cccc(CN(C(=O)Nc2ccccc2F)[C@H]2C[C@H]3C(=O)Nc4cc(F)ccc4C(=O)N3C2)c1` yielded an XC50 of 841 nM.
For `COC(=O)c1cccc(N2CCN(CCCNC(=O)/C(=C/C=C/c3cc4cc(Cl)c(Cl)cc4[nH]3)OC)CC2)c1`, the XC50 was 667 nM.
`COc1ccc(C(=O)NCC(C)(C)c2nc(-c3ccc(Cl)c(O)c3)c(-c3ccncc3)[nH]2)cc1OCCN(C(C)C)C(C)C` was tested, and the XC50 was 643 nM.
Compound `COc1ccc2nccc(N(C)CC3(O)CCC(NCc4ccc5c(n4)NC(=O)CS5)CC3)c2n1` (stereo unspecified) has an XC50 of 700 nM.
`OC1CCC(Nc2ccc3ncc(-c4ccc(Cl)cc4)n3n2)CC1` (stereo unspecified) showed an XC50 of 824 nM.
For `CC(C)[C@@H](C(=O)NCc1cccc(C(F)(F)F)c1)N1C(=O)CCC1C(=O)Nc1ccc([N+](=O)[O-])cc1` (stereo partly specified), the XC50 was 934 nM.
`C=CCN1C(=O)C(C(C)=O)=C(O)C1c1ccccc1` (stereo unspecified) was tested, and the XC50 was 53.8 nM.
`Cc1cc(SC(C)(C)C)cc2c(Cl)c(C(N)=O)cnc12` showed an XC50 of 1090 nM.
In the case of `CN1CCN(c2ccnc3cc4c(cc23)N(Cc2ccccc2)CC4)CC1`, the XC50 is reported as 1140 nM.
`CCCN1CCN(c2cc(NCC)c3c4c(onc24)-c2ccccc2C3=O)CC1` gave an XC50 of 1060 nM.
`O=C(Nc1ccc2c(c1)CCN(C1CCC1)CC2)c1ccc(-c2cn3ccccc3n2)cc1` gave an XC50 of 879 nM.
`COc1ccc(Nc2nccc(N3CCC(NC(=O)c4cc5ccccc5s4)C3)n2)cc1` (stereo unspecified) was tested, and the XC50 was 759 nM.
For `Cc1ccc(Cn2cnc3cc(C(=O)Nc4ccc(-c5cccc(CN(C)C)c5)cc4)ccc3c2=O)o1`, the XC50 was 625 nM.
With `CC(=O)c1cccc2c(NC(=O)Nc3ccc4nccc(N5CCN(C)CC5)c4c3)cccc12` the XC50 was 400 nM.
In the case of `O=C(NCc1ccc(F)cc1)Nc1ccc(-c2ccc(-c3nc4ccccc4[nH]3)cc2)cc1`, the XC50 is reported as 90.7 nM.
With `CC(C)NCC(O)COc1ccc(Cc2ccc(OCC(O)CNC(C)C)cc2)cc1` (stereo unspecified) the XC50 was 654 nM.
Compound `O=C(Nc1cccc(-c2ccc(CN3CCCC3)cc2)c1)c1ccc(Cl)cc1` has an XC50 of 427 nM.
Work on `Cc1cccc2sc(N(CCCn3ccnc3)C(=O)C=Cc3cccs3)nc12` yielded an XC50 of 1280 nM.
Compound `Cc1cc(F)ccc1[C@H]1C[C@H](N2CCOCC2)CCN1C(=O)N(C)[C@@H](C)c1cc(C(F)(F)F)cc(C(F)(F)F)c1` has an XC50 of 764 nM.
